For assay [1], the system named is COLO 829 melanoma xenograft. Description: In vivo efficacy, subcutaneous melanoma xenograft, tumor volume / % TGI. The arrangement: species or system mice.
Method: The average tumor volumes were determined from 10 animals per group. Tumor volumes were measured twice per week until study end. Tumor volumes were measured in two dimensions (length and width) using UltraCal IV calipers (Model 54 10 111, Fred V. Fowler Company; Newton, Mass.). The following formula was used with Excel, version 12.2.8 (Microsoft; Redmond, Wash.) to calculate tumor volume: Tumor Volume (mm3)=(length×width)×0.5
To analyze the repeated measurement of tumor volumes from the same animals over time, a mixed-modeling Linear Mixed Effects (LME) approach was used (Pinheiro et al. 2009). This approach can address both repeated measurements and a modest drop-out rate due to non-treatment-related termination of animals prior to study end. Cubic regression splines were used to fit a non-linear profile to the time courses of log 2 tumor volume at each dose level. These non-linear profiles were then related to dose within the mixed model. Tumor growth inhibition (TGI) as a percentage of vehicle was calculated as percent area under the fitted curve (AUC) per day in relation to the vehicle, using the following formula:
To get uncertainty intervals (UIs) for % TGI, the fitted curve and the fitted covariance matrix were used to generate a random sample as an approximation to the distribution of % TGI. The random sample is composed of 1000 simulated realizations of the fitted-mixed model, where the % TGI has been recalculated for each realization. Here, in the reported UI is the value for which 95% of the time, the recalculated values of % TGI will fall in this region given the fitted model. The 2.5 and 97.5 percentiles of the simulated distribution were used as the upper and lower UIs.
The COLO 829 xenograft model was chosen as representative of medium levels of ETBR expression, further increasing the stringency of the combination studies. Tumors were grown to an average size of approximately 200 mm^3, whereupon animals were randomized into groups of 9 each. An appropriate vehicle control (Klucel LF) or G00044364.1-12 (RG7204) at doses of 10 mpk or 30 mpk were administered orally twice a day for 21 days starting on day 0.
For assay [2], the system named is ETBR transcript. Briefly: ETBR transcript level in melanoma cell lines, Taqman, normalized to RPL19. It is filed as cell-based, human. The following applies: 24 h. On the procedure: (§1) Melanoma cell lines UACC-257X2.2, A2058, COLO 829, IPC-298 (ATCC) were treated with a BRAF inhibitor drug (“BRAFi”), specifically RG7204 at varying concentrations by adding the appropriate drug volume to cells in culture for 24 h on four-well dishes.
(§2) To determine the effect of BRAFi on ETBR and control ribosomal protein L19 (RPL19) transcript levels, the following experiments were performed. Cells treated with RG7204 for 24 h were harvested from plates by scraping and processed for total RNA using Qiashredder and RNeasy mini kits (79654, 74104 from Qiagen, Valencia, Calif.). Taqman assays were set up using reagents from Applied Biosystems (ABI, Foster City, Calif.) and assayed using 7500 Real Time PCR machine and software from ABI. Primer-probe sets were designed with primers flanking a fluorogenic probe dual labeled with Reporter dye FAM and quencher dye TAMRA.
(§3) Melanoma cell lines A2058, COLO 829, SK23-MEL and IPC-298 (ATCC) were treated with a MEK inhibitor drug (“MEKi-973” or “MEKi-623”), at varying concentrations (0 μM, 0.01 μM, 0.1 μM or 1 μM) by adding the appropriate drug volume to cells in culture for 24 h on four-well dishes.
as §2, with “MEKi” for “BRAFi”, “ETBR” for “ETBR and control ribosomal protein L19 (RPL19)”, “performed as described above in Example 3.” for “performed.”, “either MEKi-973” for “RG7204”

The next assay concerns ETBR total protein. Briefly: ETBR total protein in melanoma cell lines, Western blot. It is filed as cell-based, human. As to conditions: 24 h. On the procedure:
as §1
(§4) To test whether the increase in ETBR transcripts due to BRAFi treatment also results in any changes in ETBR total protein levels, Western blot experiments were performed on the same cell lines treated with BRAFi RG7204 as described above. For Western blotting, the following reagents were used: for detection of proteins: an anti-ETBR in-house generated monoclonal antibody 1H1.8.5, anti-Phospho-p44/42 MAPK (Erk1/2) (Thr202/Tyr204) antibody (9101, Cell Signaling Technology), anti-p44/42 MAPK (Erk1/2) antibody (9102, Cell Signaling Technology) and as controls, a rabbit polyclonal anti-GAPDH (glyceraldehyde-3-phosphate dehydrogenase) antibody (PA1-987; Affinity Bioreagents) and mouse monoclonal anti-β-Tubulin antibody (556321, BD Pharmingen). The results for UACC-257X2.2 are shown in FIG. 4B, the results for A2058 are shown in FIG. 8B, the results for COLO 829 are shown in FIG. 6B and the results for IPC-298 are shown in FIG. 10.
as §3
To test whether the increase in ETBR transcripts due to MEKi treatment also results in any changes in ETBR total protein levels, Western blot experiments were performed on cell lines COLO829 (BRAF^V600E), A2058 (BRAF^V600E), SK23-MEL (BRAF^WT/RAS^WT), or IPC-298 (BRAF^WT/RAS^[…]) which were treated with MEKi-973 as described above. For Western blotting, the following reagents were used: for detection of proteins: an anti-ETBR in-house generated monoclonal antibody 1H1.8.5, anti-Phospho-p44/42 MAPK (Erk1/2) (Thr202/Tyr204) antibody (9101, Cell Signaling Technology), anti-p44/42 MAPK (Erk1/2) antibody (9102, Cell Signaling Technology) and as controls, a rabbit polyclonal anti-GAPDH (glyceraldehyde-3-phosphate dehydrogenase) antibody (PA1-987; Affinity Bioreagents) and mouse monoclonal anti-β-Tubulin antibody (556321, BD Pharmingen). The results for A2058 are shown in FIG. 15A treated with MEKi-623 and 15B treated with MEKi-973, the results for COLO 829 are shown in FIG. 12A treated with MEKi-623 and 12B treated with MEKi-973, the results for SK23-MEL are shown in FIG. 19A treated with MEKi-623 and 19B treated with MEKi-973, and the results for IPC-298 are shown in FIG. 22A treated with MEKi-623 and 22B treated with MEKi-973.

The test system of the next assay is phosphor-ERK. Description: Phospho-ERK in melanoma cells, Western blot. It is filed as cell-based, human. The following applies: IPC-298 cells (BRAF wild-type, RAS Q61L), 24 h. As to the method: as §1, §4
For the next assay, the system named is A2058. Description: In vitro killing of A2058 by RG7204 (data not shown). It is filed as cell-based, human.
In assay [3] the test system is ETBR transcript. Briefly: PD study, ETBR transcript in COLO 829 tumors, Taqman, normalized to GAPDH. It is filed as in vivo, mice. As to conditions: RG7204 10 mpk or 30 mpk twice a day for 3 days. On the procedure: (§5) A2058 or COLO 829 tumors were grown to an average size of approximately 200 mm^3, whereupon animals were randomized into groups of 5-6 each. For the BRAFi PD study, an appropriate vehicle control (Klucel LF) or RG7204 at doses of 10 mpk or 30 mpk were administered twice a day for 3 days (FIG. 27A). For the MEKi PD study, an appropriate vehicle control or MEKi-973 at doses of 5 mpk and 10 mpk were administered orally once a day for 3 days (FIG. 27B). Flash frozen tumors harvested at end of study were homogenized and processed for RNA and/or protein. Taqman assays were set up using reagents from Applied Biosystems (ABI, Foster City, Calif.) and assayed using 7500 Real Time PCR machine and software from ABI. Primer-probe sets were designed with primers flanking a fluorogenic probe dual labeled with Reporter dye FAM and quencher dye TAMRA. ETBR transcript levels in the tumors were normalized against transcript levels of reference genes such as Hprt1 (hypoxanthine phosphoribosyltransferase 1) or GAPDH (glyceraldehyde 3 phosphate dehydrogenase) using primer and probe sets that were specific to the human homologs of these genes.

A further assay concerns Phosphorylated erk. Briefly: PD study, phosphorylated erk in COLO 829 tumors, Western blot. The class given is in vivo, mice. As to conditions: 30 mpk BRAFi RG7204. As to the method:
as §5, with “ETBR transcript levels in the tumors were normalized against transcript levels of reference genes such as Hprt1 (hypoxanthine phosphoribosyltransferase 1) or GAPDH (glyceraldehyde 3 phosphate dehydrogenase) using primer and probe sets that were specific to the human homologs of these genes.” left out
Phosphorylated erk and total erk protein levels were evaluated in the tumors by western blotting using the following reagents: for detection of proteins: anti-Phospho-p44/42 MAPK (Erk1/2) (Thr202/Tyr204) antibody (9101, Cell Signaling Technology), anti-p44/42 MAPK (Erk1/2) antibody (9102, Cell Signaling Technology) and mouse monoclonal anti-β-Tubulin antibody (556321, BD Pharmingen) as control (FIG. 26).

Some results are limits rather than exact numbers.

With `CCCS(=O)(=O)Nc1ccc(F)c(C(=O)c2c[nH]c3ncc(-c4ccc(Cl)cc4)cc23)c1F` [RG7204, propane-1-sulfonic acid {3-[5-(4-chlorophenyl)-1H-pyrrolo[2,3-b]pyridine-3-carbonyl]-2,4-difluoro-phenyl}-amide], the “% TGI Single Agent BRAFi vs. control” value in assay [1] (BRAFi Qdx21 10 mg/kg) stood at 27%; in assay [1] (BRAFi Qdx21 30 mg/kg), 83%. Further, the “ETBR transcript vs untreated control cells” value in the assay on ETBR transcript [2] (A2058 cells), in the assay with ETBR transcript [2] (COLO 829 cells) and in the assay on ETBR transcript [2] (UACC-257X2.2 cells) was “appears to increase the ETBR transcripts” each time. Moreover, the “ETBR total protein level vs untreated control cells” value is “appears to increase the ETBR total protein levels” in the assay with ETBR total protein (A2058 cells (BRAF V600E)); “appears to increase the ETBR total protein levels” in the assay on ETBR total protein (COLO 829 cells (BRAF V600E)); “does not appear to increase ETBR levels” with ETBR total protein (IPC-298 cells (BRAF wild-type, RAS mutant)); “appears to increase the ETBR total protein levels” in the assay on ETBR total protein (UACC-257X2.2 cells). The phosphor-ERK level result with phosphor-ERK is “appears to activate the levels of phosphor-ERK”. Also, the “in vitro killing efficacy” value in the assay on A2058 is > 20 µM. In addition, the “ETBR mRNA in tumors vs control vehicle” value with ETBR transcript [3] is reported as “induces ETBR mRNA in vivo”. Besides, the “Perk in tumors vs control” value in the assay with Phosphorylated erk is on record as “appears to inhibit Perk in vivo”.

The record behind these values is US20140341916A1, “THERAPEUTIC COMBINATIONS AND METHODS OF TREATING MELANOMA” (Genentech, Inc., priority 2011, published 2014).
